Laboratory results reported in EP4786487A1, “PEPTIDE” (Peptidream Inc, priority 2023, dated 2025).
Positions of bridges follow the written chain, without caps; N, C: chain ends. Non-standard residues stand in square brackets, D forms with d. Residues, ends and D or L forms follow the SMILES beside them. Phe(4-COOH) = N[C@@H](Cc1ccc(C(=O)O)cc1)C(=O)O; Trp(7-aza) = N[C@@H](Cc1c[nH]c2ncccc12)C(=O)O; Gly(N(CH2)3COOH) = O=C(O)CCCNCC(=O)O; NMeF = CN[C@@H](Cc1ccccc1)C(=O)O; 3Pal = N[C@@H](Cc1cccnc1)C(=O)O; Gly(N(CH2)3NH2) = NCCCNCC(=O)O; NMeA = CN[C@@H](C)C(=O)O; Dap = NC[C@H](N)C(=O)O; Sar = CNCC(=O)O

Experiments:
Myostatin = molecular target: T1, Myostatin (Homo sapiens, UniProt O14793); experiment: HepG2 reporter gene assay, Evaluation Procedure (2): 2-concentrations assay, myostatin inhibition; type: cell-based; settings: Myostatin 10 ng/mL, HepG2; for inhibition at 0.03 µM: peptide 30nM, read-out: Myostatin Inhibition 30nM; for inhibition at 0.1 µM: peptide 100nM, read-out: Myostatin Inhibition 100nM
T1 construct: active myostatin (also called mature myostatin) is a homodimer consisting of two C-terminal growth factor domains; purchased R&D systems 788-G8/CF
T1 sequence (O14793 267-375): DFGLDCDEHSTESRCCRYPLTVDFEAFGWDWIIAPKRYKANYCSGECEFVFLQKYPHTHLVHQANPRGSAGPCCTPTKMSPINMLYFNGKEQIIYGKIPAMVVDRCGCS
Description: (§1) The pGL3(CAGA)12-luc plasmid, namely a pGL3 vector (E1751, Promega) having a luciferase gene inserted downstream of a promoter sequence with 12 CAGA repeats attached, was transfected into HepG2 cell line (HB-8065, ATCC). The culture of HepG2 cell line (HB-8065, ATCC) was performed as in the Evaluation Procedure (1).
(§2) Myostatin (788-G8/CF, R&D systems) or GDF-11 (1958-GD-G8/CF, R&D systems) was added at a final concentration of 10 ng/mL. […] At this time, blank wells, in which neither myostatin, GDF-11, nor each peptide was added, were also prepared and incubated in a CO2 incubator (37°C, 5% CO2) for 20 to 24 hours.
(§3) The medium containing the cells was removed, and a mixture containing PBS (14190144, Thermo) and a chromogenic substrate One-Glo Luciferase Assay System (E6120, Promega) at a ratio of 1:1 was added to each well at 100 µL/well. This was stirred with a plate shaker for 5 min and transferred to a 384-well plate (3570, Corning) at a volume of 20 µL/well.
(§4) The plate was centrifuged at 1,000 × g for 1 min and the luminescence signal (700 nm luminescence) was measured using a plate reader (Envision 2104, PerkinElmer). Based on the measurement results, the inhibition rate at each peptide concentration was calculated. […]

GDF-11 = molecular target: T2, GDF-11 (Homo sapiens, UniProt O95390); experiment: HepG2 reporter gene assay, Evaluation Procedure (2): 2-concentrations assay, GDF-11 inhibition; type: cell-based; settings: GDF-11 10 ng/mL; for inhibition at 0.03 µM: HepG2, peptide 30nM, read-out: GDF11 Inhibition 30nM; for inhibition at 0.1 µM: HepG2, peptide 100nM, read-out: GDF11 Inhibition 100nM
T2 construct: purchased R&D systems 1958-GD-G8/CF
T2 sequence (O95390 299-407): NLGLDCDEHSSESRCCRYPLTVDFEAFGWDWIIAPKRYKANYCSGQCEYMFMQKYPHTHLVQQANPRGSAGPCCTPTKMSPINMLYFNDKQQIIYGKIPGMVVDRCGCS
Description: as §1, §2, §3, §4

Row | inhibition at 0.03 µM (Myostatin) | inhibition at 0.1 µM (Myostatin) | inhibition at 0.03 µM (GDF-11) | inhibition at 0.1 µM (GDF-11) | SMILES
1 | 50% | 82% | 0% | 3% | CC[C@H](C)[C@@H]1NC(=O)[C@H](Cc2ccccc2)N(C)C(=O)[C@H](Cc2ccc(O)cc2)NC(=O)[C@H](Cc2c[nH]c3ccccc23)NC(=O)[C@H](CCCNC(=N)N)NC(=O)[C@H](C)NC(=O)CSC[C@@H](C(=O)N[C@H](CCC(=O)O)C(N)=O)NC(=O)[C@H](Cc2ccccc2)N(C)C(=O)[C@H](C)N(C)C(=O)[C@H](CC(C)C)NC(=O)[C@H](Cc2ccccc2)N(C)C(=O)[C@H](CCCNC(=N)N)NC(=O)[C@H](Cc2ccc(O)cc2)NC(=O)[C@H](Cc2ccc(O)cc2)NC(=O)CN(C)C1=O [Myostatin_000099_16de] ({CH2CO}-ARWY[NMeF]I[Sar]YYR[NMeF]L[NMeA][NMeF]C[dE]-NH2; thioether N-15)
2 | 40% | 65% | 0% | 0% | CC[C@H](C)[C@@H]1NC(=O)[C@H](Cc2ccccc2)N(C)C(=O)[C@H](Cc2ccc(O)cc2)NC(=O)[C@H](Cc2c[nH]c3ccccc23)NC(=O)[C@H](C)NC(=O)CN(CCCC(=O)O)C(=O)CSC[C@H](C(=O)O)NC(=O)[C@H](Cc2ccccc2)N(C)C(=O)[C@H](C)N(C)C(=O)[C@H](CC(C)C)NC(=O)[C@H](Cc2ccccc2)N(C)C(=O)[C@H](CCCNC(=N)N)NC(=O)[C@H](Cc2ccc(O)cc2)NC(=O)[C@H](Cc2ccc(C(=O)O)cc2)NC(=O)CN(C)C1=O [Myostatin_99_Variant_06] ({CH2CO}-[Gly(N(CH2)3COOH)]AWY[NMeF]I[Sar][Phe(4-COOH)]YR[NMeF]L[NMeA][NMeF][dC]-OH; thioether N-15)
3 | 72% | 92% | 7% | 22% | CC[C@H](C)[C@@H]1NC(=O)[C@H](Cc2ccccc2)N(C)C(=O)[C@H](Cc2ccc(O)cc2)NC(=O)[C@H](Cc2c[nH]c3ccccc23)NC(=O)[C@H](CN)NC(=O)[C@H](C)NC(=O)CSC[C@H](C(=O)N[C@@H](CN)C(N)=O)NC(=O)[C@H](Cc2ccccc2)N(C)C(=O)[C@H](C)N(C)C(=O)[C@H](CC(C)C)NC(=O)[C@H](Cc2ccccc2)N(C)C(=O)[C@H](CCCNC(=N)N)NC(=O)[C@H](Cc2ccc(O)cc2)NC(=O)[C@H](Cc2ccc(O)cc2)NC(=O)CN(C)C1=O [Myostatin_99_Variant_08] ({CH2CO}-A[Dap]WY[NMeF]I[Sar]YYR[NMeF]L[NMeA][NMeF][dC][Dap]-NH2; thioether N-15)
4 | 65% | 90% | 0% | 11% | CC[C@H](C)[C@@H]1NC(=O)[C@H](Cc2ccccc2)N(C)C(=O)[C@H](Cc2ccc(O)cc2)NC(=O)[C@H](Cc2c[nH]c3ccccc23)NC(=O)[C@H](C)NC(=O)CN(CCCN)C(=O)CSC[C@H](C(=O)N[C@@H](CN)C(N)=O)NC(=O)[C@H](Cc2ccccc2)N(C)C(=O)[C@H](C)N(C)C(=O)[C@H](CC(C)C)NC(=O)[C@H](Cc2ccccc2)N(C)C(=O)[C@H](CCCNC(=N)N)NC(=O)[C@H](Cc2ccc(O)cc2)NC(=O)[C@H](Cc2ccc(O)cc2)NC(=O)CN(C)C1=O [Myostatin_99_Variant_09] ({CH2CO}-[Gly(N(CH2)3NH2)]AWY[NMeF]I[Sar]YYR[NMeF]L[NMeA][NMeF][dC][Dap]-NH2; thioether N-15)
5 | 60% | 89% | 11% | 29% | CC[C@H](C)[C@@H]1NC(=O)[C@H](Cc2ccccc2)N(C)C(=O)[C@H](Cc2ccc(O)cc2)NC(=O)[C@H](Cc2c[nH]c3ccccc23)NC(=O)[C@H](CN)NC(=O)[C@H](C)NC(=O)CSC[C@H](C(=O)N[C@@H](CN)C(=O)N[C@@H](CN)C(N)=O)NC(=O)[C@H](Cc2ccccc2)N(C)C(=O)[C@H](C)N(C)C(=O)[C@H](CC(C)C)NC(=O)[C@H](Cc2ccccc2)N(C)C(=O)[C@H](CCCNC(=N)N)NC(=O)[C@H](Cc2ccc(O)cc2)NC(=O)[C@H](Cc2ccc(O)cc2)NC(=O)CN(C)C1=O [Myostatin_99_Variant_10] ({CH2CO}-A[Dap]WY[NMeF]I[Sar]YYR[NMeF]L[NMeA][NMeF][dC][Dap][Dap]-NH2; thioether N-15)
6 | 75% | 94% | 22% | 26% | CC[C@H](C)[C@@H]1NC(=O)[C@H](Cc2ccccc2)N(C)C(=O)[C@H](Cc2ccc(O)cc2)NC(=O)[C@H](Cc2c[nH]c3ccccc23)NC(=O)[C@H](C)NC(=O)[C@H](C)NC(=O)CSC[C@H](C(=O)N[C@@H](CN)C(N)=O)NC(=O)[C@H](Cc2ccccc2)N(C)C(=O)[C@H](C)N(C)C(=O)[C@H](CC(C)C)NC(=O)[C@H](Cc2ccccc2)N(C)C(=O)[C@H](CCCNC(=N)N)NC(=O)[C@H](Cc2ccc(O)cc2)NC(=O)[C@H](CCCCN)NC(=O)CN(C)C1=O [Myostatin_99_Variant_11] ({CH2CO}-AAWY[NMeF]I[Sar]KYR[NMeF]L[NMeA][NMeF][dC][Dap]-NH2; thioether N-15)
7 | 51% | 76% | 8% | 12% | CC[C@H](C)[C@@H]1NC(=O)[C@H](Cc2ccccc2)N(C)C(=O)[C@H](Cc2ccc(O)cc2)NC(=O)[C@H](Cc2c[nH]c3ccccc23)NC(=O)[C@H](CN)NC(=O)CN(CCCN)C(=O)CSC[C@H](C(N)=O)NC(=O)[C@H](Cc2ccccc2)N(C)C(=O)[C@H](C)N(C)C(=O)[C@H](CC(C)C)NC(=O)[C@H](Cc2ccccc2)N(C)C(=O)[C@H](CCCNC(=N)N)NC(=O)[C@H](Cc2ccc(O)cc2)NC(=O)[C@H](Cc2ccc(O)cc2)NC(=O)CN(C)C1=O [Myostatin_99_Variant_13] ({CH2CO}-[Gly(N(CH2)3NH2)][Dap]WY[NMeF]I[Sar]YYR[NMeF]L[NMeA][NMeF][dC]-NH2; thioether N-15)
8 | 41% | 73% | 0% | 1% | CC[C@H](C)[C@@H]1NC(=O)[C@H](Cc2ccccc2)N(C)C(=O)[C@H](Cc2ccc(O)cc2)NC(=O)[C@H](Cc2c[nH]c3ncccc23)NC(=O)[C@H](C)NC(=O)CN(CCCC(=O)O)C(=O)CSC[C@H](C(N)=O)NC(=O)[C@H](Cc2ccccc2)N(C)C(=O)[C@H](C)N(C)C(=O)[C@H](CC(C)C)NC(=O)[C@H](Cc2ccccc2)N(C)C(=O)[C@H](CCCNC(=N)N)NC(=O)[C@H](Cc2ccc(C(=O)O)cc2)NC(=O)[C@H](Cc2ccc(O)cc2)NC(=O)CN(C)C1=O [Myostatin_99_Variant_14] ({CH2CO}-[Gly(N(CH2)3COOH)]A[Trp(7-aza)]Y[NMeF]I[Sar]Y[Phe(4-COOH)]R[NMeF]L[NMeA][NMeF][dC]-NH2; thioether N-15)
9 | 54% | 84% | 0% | 0% | CC[C@H](C)[C@@H]1NC(=O)[C@H](Cc2ccccc2)N(C)C(=O)[C@H](Cc2ccc(O)cc2)NC(=O)[C@H](Cc2c[nH]c3ccccc23)NC(=O)[C@H](C)NC(=O)CN(CCCC(=O)O)C(=O)CSC[C@H](C(N)=O)NC(=O)[C@H](Cc2ccccc2)N(C)C(=O)[C@H](C)N(C)C(=O)[C@H](CC(C)C)NC(=O)[C@H](Cc2ccccc2)N(C)C(=O)[C@H](CCCNC(=N)N)NC(=O)[C@H](Cc2ccc(C(=O)O)cc2)NC(=O)[C@H](Cc2ccc(O)cc2)NC(=O)[C@H](C)N(C)C1=O [Myostatin_99_Variant_15] ({CH2CO}-[Gly(N(CH2)3COOH)]AWY[NMeF]I[NMeA]Y[Phe(4-COOH)]R[NMeF]L[NMeA][NMeF][dC]-NH2; thioether N-15)
10 | 34% | 75% | 0% | 4% | CC[C@H](C)[C@@H]1NC(=O)[C@H](Cc2ccccc2)N(C)C(=O)[C@H](Cc2ccc(O)cc2)NC(=O)[C@H](Cc2c[nH]c3ccccc23)NC(=O)[C@H](C)NC(=O)CN(CCCC(=O)O)C(=O)CSC[C@H](C(N)=O)NC(=O)[C@H](Cc2ccccc2)N(C)C(=O)[C@H](C)N(C)C(=O)[C@H](CC(C)C)NC(=O)[C@H](Cc2ccccc2)N(C)C(=O)[C@H](CCCNC(=N)N)NC(=O)[C@H](Cc2cccnc2)NC(=O)[C@H](Cc2ccc(O)cc2)NC(=O)CN(C)C1=O [Myostatin_99_Variant_16] ({CH2CO}-[Gly(N(CH2)3COOH)]AWY[NMeF]I[Sar]Y[3Pal]R[NMeF]L[NMeA][NMeF][dC]-NH2; thioether N-15)
